The results in this text go back to the NIST ThermoML archive (doi:10.1016/j.tca.2015.06.009).

Numbers after ± are expanded uncertainties.

Data set [1] in a line: isobaric coefficient of expansion. Conditions: 300 K; 101.33 kPa; Crystal; Photoacoustics.
For data set [2] the following is noted: 300 K; 101.33 kPa; Crystal; Photoacoustics.

`[Al]` [aluminum]: the “isobaric coefficient of expansion” value in data set [1] is 1.5e-05 ± 1e-06 1/K. The thermal diffusivity in data set [2] stood at 9.37e-05 ± 1.6e-06 m2/s.

In the case of `[Cu]` [copper], the “isobaric coefficient of expansion” value in data set [1] is 1.3e-05 ± 1e-06 1/K. Moreover, the thermal diffusivity in data set [2] came out at 0.000116 ± 4e-06 m2/s.

For `[Ag]` [silver], in data set [1], the “isobaric coefficient of expansion” value is 1.4e-05 ± 1e-06 1/K. In data set [2], the thermal diffusivity was 0.000174 ± 1.2e-05 m2/s.
